According to ChEMBL document CHEMBL1152560, “Substituted 2-arylbenzothiazoles as kinase inhibitors: hit-to-lead optimization” (Bioorg Med Chem, 2009):

Assays:
[1] = target: Death-associated protein kinase 1 (Homo sapiens) (UniProt P53355); assay: Residual activity of DAPK1 at 1 uM by microplate scintillation counting
[2] = target: T1, Myotonin-protein kinase (Homo sapiens) (UniProt Q09013); assay: Residual activity of DMPK at 1 uM by microplate scintillation counting
T1 sequence (whole entry): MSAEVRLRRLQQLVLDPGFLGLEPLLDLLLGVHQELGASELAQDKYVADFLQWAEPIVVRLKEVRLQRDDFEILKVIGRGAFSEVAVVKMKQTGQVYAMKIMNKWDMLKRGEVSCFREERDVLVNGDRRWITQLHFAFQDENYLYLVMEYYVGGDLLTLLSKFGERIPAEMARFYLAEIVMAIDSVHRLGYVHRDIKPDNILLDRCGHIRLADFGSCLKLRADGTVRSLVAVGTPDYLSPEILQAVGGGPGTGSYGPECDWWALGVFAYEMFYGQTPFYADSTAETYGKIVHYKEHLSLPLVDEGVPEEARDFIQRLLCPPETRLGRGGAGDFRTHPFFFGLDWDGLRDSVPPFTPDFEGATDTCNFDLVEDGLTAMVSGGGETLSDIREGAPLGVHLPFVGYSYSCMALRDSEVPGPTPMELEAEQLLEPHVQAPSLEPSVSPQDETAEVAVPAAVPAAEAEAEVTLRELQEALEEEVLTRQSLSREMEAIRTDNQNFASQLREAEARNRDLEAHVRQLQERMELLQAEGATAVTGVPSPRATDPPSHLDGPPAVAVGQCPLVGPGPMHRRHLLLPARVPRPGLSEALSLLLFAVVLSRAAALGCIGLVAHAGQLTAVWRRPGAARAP

[3] = target: T2, G protein-coupled receptor kinase 3 (Homo sapiens) (UniProt P35626); assay: Residual activity of GRK3 at 1 uM by microplate scintillation counting
T2 sequence (whole entry): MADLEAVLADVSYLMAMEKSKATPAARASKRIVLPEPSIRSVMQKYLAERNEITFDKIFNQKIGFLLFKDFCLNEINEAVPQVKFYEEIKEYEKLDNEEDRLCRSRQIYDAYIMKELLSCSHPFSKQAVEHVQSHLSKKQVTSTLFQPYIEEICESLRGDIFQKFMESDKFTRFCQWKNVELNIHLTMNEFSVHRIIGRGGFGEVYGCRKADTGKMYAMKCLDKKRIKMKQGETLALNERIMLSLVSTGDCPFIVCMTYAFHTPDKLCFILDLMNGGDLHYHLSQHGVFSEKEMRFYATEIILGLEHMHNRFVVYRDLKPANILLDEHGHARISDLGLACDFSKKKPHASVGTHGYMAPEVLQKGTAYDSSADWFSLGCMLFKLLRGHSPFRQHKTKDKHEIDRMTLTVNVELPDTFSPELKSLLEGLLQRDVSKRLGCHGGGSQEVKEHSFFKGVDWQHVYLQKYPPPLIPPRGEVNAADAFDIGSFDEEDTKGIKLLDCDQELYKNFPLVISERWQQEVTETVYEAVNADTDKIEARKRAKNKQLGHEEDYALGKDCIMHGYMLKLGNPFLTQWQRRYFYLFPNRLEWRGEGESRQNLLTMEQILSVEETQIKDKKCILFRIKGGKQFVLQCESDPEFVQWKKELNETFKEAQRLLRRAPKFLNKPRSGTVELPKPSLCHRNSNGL

[4] = target: T3, MAP kinase-activated protein kinase 5 (Homo sapiens) (UniProt Q8IW41); assay: Residual activity of MAPKAPK5 at 0.1 uM by microplate scintillation counting
T3 sequence (whole entry): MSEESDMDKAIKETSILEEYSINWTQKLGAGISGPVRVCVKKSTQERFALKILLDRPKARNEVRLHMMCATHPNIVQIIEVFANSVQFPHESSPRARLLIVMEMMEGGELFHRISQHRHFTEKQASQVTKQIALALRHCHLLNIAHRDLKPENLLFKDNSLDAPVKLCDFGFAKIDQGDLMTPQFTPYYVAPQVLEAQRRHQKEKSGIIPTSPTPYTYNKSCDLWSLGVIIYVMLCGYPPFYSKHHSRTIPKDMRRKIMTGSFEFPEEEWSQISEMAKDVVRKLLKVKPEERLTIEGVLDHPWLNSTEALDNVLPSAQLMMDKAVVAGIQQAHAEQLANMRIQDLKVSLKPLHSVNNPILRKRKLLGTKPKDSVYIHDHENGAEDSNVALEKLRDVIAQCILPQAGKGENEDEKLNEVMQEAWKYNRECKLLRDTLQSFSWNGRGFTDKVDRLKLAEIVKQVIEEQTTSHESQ

[5] = target: Dual specificity mitogen-activated protein kinase kinase 1 (Homo sapiens) (UniProt Q02750); assay: Residual activity of wild type MEK1 at 1 uM by microplate scintillation counting
Dual specificity mitogen-activated protein kinase kinase 1 (Homo sapiens), sequence (Q02750 whole entry): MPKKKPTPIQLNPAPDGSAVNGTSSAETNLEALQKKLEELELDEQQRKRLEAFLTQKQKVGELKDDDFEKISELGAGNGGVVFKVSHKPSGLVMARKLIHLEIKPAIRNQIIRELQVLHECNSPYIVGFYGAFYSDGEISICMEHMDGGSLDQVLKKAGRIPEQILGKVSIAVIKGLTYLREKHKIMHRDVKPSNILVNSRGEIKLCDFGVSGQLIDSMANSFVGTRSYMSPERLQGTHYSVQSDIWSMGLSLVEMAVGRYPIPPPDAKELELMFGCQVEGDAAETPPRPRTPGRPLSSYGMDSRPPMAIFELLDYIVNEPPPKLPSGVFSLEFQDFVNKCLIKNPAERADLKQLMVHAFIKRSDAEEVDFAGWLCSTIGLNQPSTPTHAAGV

[6] = target: T4, cAMP-dependent protein kinase catalytic subunit PRKX (Homo sapiens) (UniProt P51817); assay: Residual activity of PRKX at 1 uM by microplate scintillation counting
T4 sequence (whole entry): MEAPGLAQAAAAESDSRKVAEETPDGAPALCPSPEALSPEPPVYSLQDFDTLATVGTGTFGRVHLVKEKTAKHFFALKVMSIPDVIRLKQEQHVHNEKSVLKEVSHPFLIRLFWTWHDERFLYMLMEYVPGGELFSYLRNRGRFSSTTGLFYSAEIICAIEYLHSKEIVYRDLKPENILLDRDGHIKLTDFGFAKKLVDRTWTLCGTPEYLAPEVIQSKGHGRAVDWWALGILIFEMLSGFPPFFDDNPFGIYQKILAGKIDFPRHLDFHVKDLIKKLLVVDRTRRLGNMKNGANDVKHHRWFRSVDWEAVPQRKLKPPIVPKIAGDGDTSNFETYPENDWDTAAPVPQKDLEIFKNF

[7] = target: MAP/microtubule affinity-regulating kinase 3 (Homo sapiens) (UniProt P27448); assay: Residual activity of MARK3 at 10 uM by microplate scintillation counting
MAP/microtubule affinity-regulating kinase 3 (Homo sapiens), sequence (P27448 whole entry, looked up): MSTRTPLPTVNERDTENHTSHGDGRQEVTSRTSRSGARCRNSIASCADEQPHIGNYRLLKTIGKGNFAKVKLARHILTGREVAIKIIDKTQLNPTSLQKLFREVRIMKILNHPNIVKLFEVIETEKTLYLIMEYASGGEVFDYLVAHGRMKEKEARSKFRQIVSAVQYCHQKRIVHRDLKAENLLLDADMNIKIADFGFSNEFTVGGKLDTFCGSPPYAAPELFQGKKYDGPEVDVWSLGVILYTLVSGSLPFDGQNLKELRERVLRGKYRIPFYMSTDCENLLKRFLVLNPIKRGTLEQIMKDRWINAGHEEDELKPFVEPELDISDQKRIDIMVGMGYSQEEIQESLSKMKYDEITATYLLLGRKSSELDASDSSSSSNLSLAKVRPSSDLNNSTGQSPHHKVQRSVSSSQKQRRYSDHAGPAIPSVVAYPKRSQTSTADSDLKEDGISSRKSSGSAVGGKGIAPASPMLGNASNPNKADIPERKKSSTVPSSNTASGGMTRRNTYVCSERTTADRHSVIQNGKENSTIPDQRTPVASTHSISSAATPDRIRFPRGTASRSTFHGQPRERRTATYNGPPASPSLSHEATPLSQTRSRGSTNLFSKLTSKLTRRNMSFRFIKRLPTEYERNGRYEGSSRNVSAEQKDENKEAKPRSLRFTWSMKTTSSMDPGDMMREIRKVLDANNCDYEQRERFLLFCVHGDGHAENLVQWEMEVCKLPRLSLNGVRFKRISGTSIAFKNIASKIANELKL

[8] = target: CDK6/cyclin D1 (Homo sapiens) (UniProt P24385+Q00534); assay: Residual activity of CDK6/Cyclin D1 at 0.1 uM by microplate scintillation counting; type: protein-complex assay
[9] = target: Tyrosine-protein kinase SYK (Homo sapiens) (UniProt P43405); assay: Residual activity of SYK at 10 uM by microplate scintillation counting
[10] = target: Angiopoietin-1 receptor (Homo sapiens, UniProt Q02763); assay: Residual activity of TIE2 at 0.1 uM by microplate scintillation counting
Angiopoietin-1 receptor, sequence (Q02763 whole entry): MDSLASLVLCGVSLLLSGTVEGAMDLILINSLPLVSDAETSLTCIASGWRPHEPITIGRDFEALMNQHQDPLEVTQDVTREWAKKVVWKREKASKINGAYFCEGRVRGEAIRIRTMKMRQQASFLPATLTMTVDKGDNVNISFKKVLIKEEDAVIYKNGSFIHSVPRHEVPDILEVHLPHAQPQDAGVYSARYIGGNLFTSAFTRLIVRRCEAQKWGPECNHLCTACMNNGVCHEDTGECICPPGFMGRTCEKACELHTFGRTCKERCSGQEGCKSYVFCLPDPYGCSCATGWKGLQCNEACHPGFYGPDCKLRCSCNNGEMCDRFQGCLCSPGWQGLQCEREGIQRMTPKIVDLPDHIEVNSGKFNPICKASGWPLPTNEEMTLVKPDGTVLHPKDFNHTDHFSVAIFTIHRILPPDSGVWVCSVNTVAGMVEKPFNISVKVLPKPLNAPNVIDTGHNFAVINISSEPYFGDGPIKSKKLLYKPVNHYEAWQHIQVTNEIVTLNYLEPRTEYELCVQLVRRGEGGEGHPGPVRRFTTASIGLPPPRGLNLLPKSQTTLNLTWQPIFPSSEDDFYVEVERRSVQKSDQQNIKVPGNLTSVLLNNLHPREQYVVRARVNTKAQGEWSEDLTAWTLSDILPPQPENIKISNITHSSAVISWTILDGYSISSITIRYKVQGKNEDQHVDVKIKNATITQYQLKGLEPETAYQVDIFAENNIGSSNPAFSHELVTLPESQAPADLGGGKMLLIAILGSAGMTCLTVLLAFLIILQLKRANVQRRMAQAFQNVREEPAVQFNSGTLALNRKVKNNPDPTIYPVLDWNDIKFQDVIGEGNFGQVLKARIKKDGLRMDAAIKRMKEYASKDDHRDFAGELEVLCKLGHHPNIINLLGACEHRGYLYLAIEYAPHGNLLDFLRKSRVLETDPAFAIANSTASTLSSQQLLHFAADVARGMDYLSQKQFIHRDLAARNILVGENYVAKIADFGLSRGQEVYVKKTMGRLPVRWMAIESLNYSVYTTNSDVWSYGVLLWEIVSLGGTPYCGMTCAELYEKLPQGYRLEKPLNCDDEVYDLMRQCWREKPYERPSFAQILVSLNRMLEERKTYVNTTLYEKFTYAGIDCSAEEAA

[11] = target: 3-phosphoinositide-dependent protein kinase 1 (Homo sapiens) (UniProt O15530); assay: Residual activity of PDK1 at 1 uM by microplate scintillation counting
3-phosphoinositide-dependent protein kinase 1 (Homo sapiens), sequence (O15530 whole entry, looked up): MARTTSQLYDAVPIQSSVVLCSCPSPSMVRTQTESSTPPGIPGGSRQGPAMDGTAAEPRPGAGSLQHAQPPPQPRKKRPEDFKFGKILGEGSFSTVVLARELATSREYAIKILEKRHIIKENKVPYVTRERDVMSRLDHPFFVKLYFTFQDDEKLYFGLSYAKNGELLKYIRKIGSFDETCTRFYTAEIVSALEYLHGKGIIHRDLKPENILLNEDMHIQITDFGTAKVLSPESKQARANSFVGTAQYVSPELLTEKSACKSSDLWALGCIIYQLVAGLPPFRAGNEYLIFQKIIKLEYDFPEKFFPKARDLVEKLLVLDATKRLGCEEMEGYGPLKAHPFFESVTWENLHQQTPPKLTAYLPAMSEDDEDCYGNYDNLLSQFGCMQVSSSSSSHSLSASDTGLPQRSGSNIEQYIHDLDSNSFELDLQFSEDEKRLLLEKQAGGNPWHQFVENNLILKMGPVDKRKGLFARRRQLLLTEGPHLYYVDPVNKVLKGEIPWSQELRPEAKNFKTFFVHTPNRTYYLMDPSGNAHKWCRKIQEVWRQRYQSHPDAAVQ

Death-associated protein kinase 1 (Homo sapiens), sequence (P53355 whole entry, looked up): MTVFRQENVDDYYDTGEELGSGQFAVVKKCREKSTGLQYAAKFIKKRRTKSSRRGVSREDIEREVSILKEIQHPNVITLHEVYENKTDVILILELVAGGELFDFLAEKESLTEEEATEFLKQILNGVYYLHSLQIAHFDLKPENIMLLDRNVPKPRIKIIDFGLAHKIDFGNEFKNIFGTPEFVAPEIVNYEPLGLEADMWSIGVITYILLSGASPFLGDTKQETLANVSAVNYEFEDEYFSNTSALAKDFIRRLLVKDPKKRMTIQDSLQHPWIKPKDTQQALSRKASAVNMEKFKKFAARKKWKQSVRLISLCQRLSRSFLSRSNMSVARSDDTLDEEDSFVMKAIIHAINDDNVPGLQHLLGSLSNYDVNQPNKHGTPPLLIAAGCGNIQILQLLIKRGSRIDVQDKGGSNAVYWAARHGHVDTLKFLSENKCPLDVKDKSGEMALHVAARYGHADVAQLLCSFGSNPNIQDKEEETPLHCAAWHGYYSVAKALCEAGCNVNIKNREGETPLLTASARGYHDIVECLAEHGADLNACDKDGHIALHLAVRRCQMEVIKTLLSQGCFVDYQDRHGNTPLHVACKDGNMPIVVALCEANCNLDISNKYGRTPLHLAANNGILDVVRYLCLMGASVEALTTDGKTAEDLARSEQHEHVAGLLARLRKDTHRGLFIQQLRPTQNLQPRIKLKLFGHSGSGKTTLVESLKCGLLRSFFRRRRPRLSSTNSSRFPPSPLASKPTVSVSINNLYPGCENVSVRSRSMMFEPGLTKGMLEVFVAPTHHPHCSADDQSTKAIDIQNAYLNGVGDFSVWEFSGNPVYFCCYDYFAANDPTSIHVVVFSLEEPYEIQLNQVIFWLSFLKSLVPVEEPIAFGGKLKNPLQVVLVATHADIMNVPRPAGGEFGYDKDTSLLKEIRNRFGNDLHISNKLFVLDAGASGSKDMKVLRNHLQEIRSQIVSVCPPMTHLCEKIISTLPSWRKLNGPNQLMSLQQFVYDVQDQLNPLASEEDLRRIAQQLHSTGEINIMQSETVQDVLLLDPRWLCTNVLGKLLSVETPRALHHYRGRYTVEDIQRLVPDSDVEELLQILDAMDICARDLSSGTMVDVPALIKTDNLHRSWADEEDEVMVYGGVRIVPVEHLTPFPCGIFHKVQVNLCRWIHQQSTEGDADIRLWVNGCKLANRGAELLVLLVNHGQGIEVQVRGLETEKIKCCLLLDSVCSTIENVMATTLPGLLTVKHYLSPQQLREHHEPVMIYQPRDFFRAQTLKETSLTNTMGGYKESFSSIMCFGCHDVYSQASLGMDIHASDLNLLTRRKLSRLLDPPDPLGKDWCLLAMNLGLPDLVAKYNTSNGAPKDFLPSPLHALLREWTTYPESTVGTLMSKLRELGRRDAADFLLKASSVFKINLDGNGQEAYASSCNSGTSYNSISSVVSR

Row | residual activity [2] [%] | residual activity [3] [%] | residual activity [4] [%] | residual activity [5] [%] | residual activity [6] [%] | residual activity [7] [%] | residual activity [8] [%] | residual activity [9] [%] | residual activity [10] [%] | residual activity [11] [%] | SMILES | residual activity [1] [%]
1 | 104 | 98 | 97 | 59 | 86 | 108 | 91 | 162 | 50 | 102 | COc1cc2c(Oc3ccc(-c4nc5ccccc5s4)cc3)ncnc2cc1OCCCN1CCCC1 | 86
2 | 106 | 102 | 124 | 53 | 89 | 107 | 99 | 146 | 38 | 101 | COc1cc2c(Oc3ccc(-c4nc5ccccc5s4)cc3)ncnc2cc1OCCCN1CCN(C)CC1 | 81
3 | 121 | 103 | 95 | 52 | 92 | 104 | 107 | 63 | 53 | 108 | COc1cc2c(Oc3ccc(-c4nc5ccccc5s4)cc3F)ncnc2cc1OCCCN1CCN(C)CC1 | 90
